Results on 20 compounds are retold here after patent US20230340011A1 (Asteroid Therapeutics, priority 2022, published 2023).

The target of this assay is SREBP-2 (Homo sapiens (Human), UniProt Q12772). The assay can be described thus: In vitro assay SREBP-2: PathHunter U2OS SREBP-2 Nuclear Translocation Cell Line, U18666A-stimulated. The class given is cell-based. Conditions: PathHunter U2OS SREBP-2 nuclear translocation cells, U18666A 10 μM, overnight (16 hours).

For `CON(C(=O)CC[C@@H](C)[C@H]1CC[C@H]2[C@@H]3CC=C4C[C@@H](O)CC[C@]4(C)[C@H]3CC[C@]12C)C1CC1` [Example 36, (R)—N-cyclopropyl-4-((3S,8S,9S,10R,13R,14S,17R)-3-hydroxy-10,13-dimethyl-2,3,4,7,8,9,10,11,12,13,14,15,16,17-tetradecahydro-1H-cyclopenta[a]phenanthren-17-yl)-N-methoxypentanamide], the IC50 lay within 0.25 to 1 µM. In the case of `C[C@H](CCC(=O)N1CC[C@H](CO)O1)[C@H]1CC[C@H]2[C@@H]3CC=C4C[C@@H](O)CC[C@]4(C)[C@H]3CC[C@]12C` [Example 43, (R)-4-((3S,8S,9S,10R,13R,14S,17R)-3-hydroxy-10,13-dimethyl-2,3,4,7,8,9,10,11,12,13,14,15,16,17-tetradecahydro-1H-cyclopenta[a]phenanthren-17-yl)-1-((R)-5-(hydroxymethyl)isoxazolidin-2-yl)pentan-1-one], the IC50 is 0.25 to 1 µM. For the compound `C=CCN1C[C@H]2CON(C(=O)CC[C@@H](C)[C@H]3CC[C@H]4[C@@H]5CC=C6C[C@@H](O)CC[C@]6(C)[C@H]5CC[C@]34C)[C@H]2C1` [Example 45, (R)-1-((3aR,6aR)-5-allylhexahydro-1H-pyrrolo[3,4-c]isoxazol-1-yl)-4-((3S,8S,9S,10R,13R,14S,17R)-3-hydroxy-10,13-dimethyl-2,3,4,7,8,9,10,11,12,13,14,15,16,17-tetradecahydro-1H-cyclopenta[a]phenanthren-17-yl)pentan-1-one], the IC50 was 0.25 to 1 µM. In the case of `CC[C@H]1NC[C@@H]2CON(C(=O)CC[C@@H](C)[C@H]3CC[C@H]4[C@@H]5CC=C6C[C@@H](O)CC[C@]6(C)[C@H]5CC[C@]34C)[C@@H]21` [Example 47, (R)-1-((3aS,6R,6aS)-6-ethylhexahydro-1H-pyrrolo[3,4-c]isoxazol-1-yl)-4-((3S,8S,9S,10R,13R,14S,17R)-3-hydroxy-10,13-dimethyl-2,3,4,7,8,9,10,11,12,13,14,15,16,17-tetradecahydro-1H-cyclopenta[a]phenanthren-17-yl)pentan-1-one], the IC50 fell in the range of 0.25 to 1 µM. As to `CC[C@@H]1NC[C@@H]2CON(C(=O)CC[C@@H](C)[C@H]3CC[C@H]4[C@@H]5CC=C6C[C@@H](O)CC[C@]6(C)[C@H]5CC[C@]34C)[C@@H]21` [Example 48, (R)-1-((3aS,6S,6aS)-6-ethylhexahydro-1H-pyrrolo[3,4-c]isoxazol-1-yl)-4-((3S,8S,9S,10R,13R,14S,17R)-3-hydroxy-10,13-dimethyl-2,3,4,7,8,9,10,11,12,13,14,15,16,17-tetradecahydro-1H-cyclopenta[a]phenanthren-17-yl)pentan-1-one], the IC50 lay in the range of 0.25 to 1 µM.

`C[C@H](CCC(=O)N1OCCC[C@@H]1C)[C@H]1CC[C@H]2[C@@H]3CC=C4C[C@@H](O)CC[C@]4(C)[C@H]3CC[C@]12C` [Example 74, (R)-4-((3S,8S,9S,10R,13R,14S,17R)-3-hydroxy-10,13-dimethyl-2,3,4,7,8,9,10,11,12,13,14,15,16,17-tetradecahydro-1H-cyclopenta[a]phenanthren-17-yl)-1-((S)-3-methyl-1,2-oxazinan-2-yl)pentan-1-one] registered an IC50 of under 0.25 µM. `CC#CC1(O)CCN(C(=O)CC[C@@H](C)[C@H]2CC[C@H]3[C@@H]4CC=C5C[C@@H](O)CC[C@]5(C)[C@H]4CC[C@]23C)CC1` [Example 90, (R)-4-((3S,8S,9S,10R,13R,14S,17R)-3-hydroxy-10,13-dimethyl-2,3,4,7,8,9,10,11,12,13,14,15,16,17-tetradecahydro-1H-cyclopenta[a]phenanthren-17-yl)-1-(4-hydroxy-4-(prop-1-yn-1-yl)piperidin-1-yl)pentan-1-one]: the 50% inhibitory concentration (IC50) is under 0.25 µM. In the case of `CCCCC1(O)CCN(C(=O)CC[C@@H](C)[C@H]2CC[C@H]3[C@@H]4CC=C5C[C@@H](O)CC[C@]5(C)[C@H]4CC[C@]23C)CC1` [Example 92, (R)-1-(4-butyl-4-hydroxypiperidin-1-yl)-4-((3S,8S,9S,10R,13R,14S,17R)-3-hydroxy-10,13-dimethyl-2,3,4,7,8,9,10,11,12,13,14,15,16,17-tetradecahydro-1H-cyclopenta[a]phenanthren-17-yl)pentan-1-one], the IC50 is under 0.25 µM. Take `CC(C)CC1(O)CCN(C(=O)CC[C@@H](C)[C@H]2CC[C@H]3[C@@H]4CC=C5C[C@@H](O)CC[C@]5(C)[C@H]4CC[C@]23C)CC1` [Example 93, (R)-4-((3S,8S,9S,10R,13R,14S,17R)-3-hydroxy-10,13-dimethyl-2,3,4,7,8,9,10,11,12,13,14,15,16,17-tetradecahydro-1H-cyclopenta[a]phenanthren-17-yl)-1-(4-hydroxy-4-isobutylpiperidin-1-yl) pentan-1-one]: the IC50 was under 0.25 µM. `C[C@H](CCC(=O)NCC(=O)O)[C@H]1CC[C@H]2[C@@H]3CC=C4C[C@@H](O)CC[C@]4(C)[C@H]3CC[C@]12C` [Example 107, ((R)-4-((3S,8S,9S,10R,13R,14S,17R)-3-hydroxy-10,13-dimethyl-2,3,4,7,8,9,10,11,12,13,14,15,16,17-tetradecahydro-1H-cyclopenta[a]phenanthren-17-yl)pentanoyl)glycine] displayed a 50% inhibitory concentration (IC50) of over 10 µM.

In the case of `C[C@H](CCC(=O)N(C)CC(=O)O)[C@H]1CC[C@H]2[C@@H]3CC=C4C[C@@H](O)CC[C@]4(C)[C@H]3CC[C@]12C` [Example 108, N—((R)-4-((3S,8S,9S,10R,13R,14S,17R)-3-hydroxy-10,13-dimethyl-2,3,4,7,8,9,10,11,12,13,14,15,16,17-tetradecahydro-1H-cyclopenta[a]phenanthren-17-yl)pentanoyl)-N-methylglycine], the IC50 was over 10 µM.

The compound `CCN(CC(=O)O)C(=O)CC[C@@H](C)[C@H]1CC[C@H]2[C@@H]3CC=C4C[C@@H](O)CC[C@]4(C)[C@H]3CC[C@]12C` [Example 109, N-ethyl-N—((R)-4-((3S,8S,9S,10R,13R,14S,17R)-3-hydroxy-10,13-dimethyl-2,3,4,7,8,9,10,11,12,13,14,15,16,17-tetradecahydro-1H-cyclopenta[a]phenanthren-17-yl)pentanoyl)glycine] had an IC50 of over 10 µM. In the case of `C[C@H](CCC(=O)N(C)C)[C@H]1CC[C@H]2[C@@H]3CC=C4C[C@H](O)CC[C@]4(C)[C@H]3CC[C@]12C` [Example 122, (R)-4-((3R,8S,9S,10R,13R,14S,17R)-3-hydroxy-10,13-dimethyl-2,3,4,7,8,9,10,11,12,13,14,15,16,17-tetradecahydro-1H-cyclopenta[a]phenanthren-17-yl)-N,N-dimethylpentanamide] it was over 10 µM; in that of `C[C@H](CCC(=O)N1CCC(O)(C(F)F)CC1)[C@H]1CC[C@H]2[C@@H]3CC=C4C[C@@H](O)CC[C@]4(C)[C@H]3CC[C@]12C` [Example 128, (R)-1-(4-(difluoromethyl)-4-hydroxypiperidin-1-yl)-4-((3S,8S,9S,10R,13R,14S,17R)-3-hydroxy-10,13-dimethyl-2,3,4,7,8,9,10,11,12,13,14,15,16,17-tetradecahydro-1H-cyclopenta[a]phenanthren-17-yl)pentan-1-one], under 0.25 µM. For the compound `CCC1(O)CCN(C(=O)CC[C@@H](C)[C@H]2CC[C@H]3[C@@H]4CC=C5C[C@@H](O)CC[C@]5(C)[C@H]4CC[C@]23C)CC1` [Example 129, (R)-1-(4-ethyl-4-hydroxypiperidin-1-yl)-4-((3S,8S,9S,10R,13R,14S,17R)-3-hydroxy-10,13-dimethyl-2,3,4,7,8,9,10,11,12,13,14,15,16,17-tetradecahydro-1H-cyclopenta[a]phenanthren-17-yl)pentan-1-one], the 50% inhibitory concentration (IC50) is under 0.25 µM. In the case of `Cc1cccnc1CC[C@@H](C)[C@H]1CC[C@H]2[C@@H]3CC=C4C[C@@H](O)CC[C@]4(C)[C@H]3CC[C@]12C` [Example 130, (3S,8S,9S,10R,13R,14S,17R)-10,13-dimethyl-17-((R)-4-(3-methylpyridin-2-yl)butan-2-yl)-2,3,4,7,8,9,10,11,12,13,14,15,16,17-tetradecahydro-1H-cyclopenta[a]phenanthren-3-ol] it was under 0.25 µM. Take `C=CC1(O)CCN(C(=O)CC[C@@H](C)[C@H]2CC[C@H]3[C@@H]4CC=C5C[C@@H](O)CC[C@]5(C)[C@H]4CC[C@]23C)CC1` [Example 146, (R)-4-((3S,8S,9S,10R,13R,14S,17R)-3-hydroxy-10,13-dimethyl-2,3,4,7,8,9,10,11,12,13,14,15,16,17-tetradecahydro-1H-cyclopenta[a]phenanthren-17-yl)-1-(4-hydroxy-4-vinylpiperidin-1-yl) pentan-1-one]: the IC50 is under 0.25 µM. `C#CC1(O)CCN(C(=O)CC[C@@H](C)[C@H]2CC[C@H]3[C@@H]4CC=C5C[C@@H](O)CC[C@]5(C)[C@H]4CC[C@]23C)CC1` [Example 147, (R)-1-(4-ethynyl-4-hydroxypiperidin-1-yl)-4-((3S,8S,9S,10R,13R,14S,17R)-3-hydroxy-10,13-dimethyl-2,3,4,7,8,9,10,11,12,13,14,15,16,17-tetradecahydro-1H-cyclopenta[a]phenanthren-17-yl)pentan-1-one] returned an IC50 of under 0.25 µM. As for `CCCC1(O)CCN(C(=O)CC[C@@H](C)[C@H]2CC[C@H]3[C@@H]4CC=C5C[C@@H](O)CC[C@]5(C)[C@H]4CC[C@]23C)CC1` [Example 148, (R)-4-((3S,8S,9S,10R,13R,14S,17R)-3-hydroxy-10,13-dimethyl-2,3,4,7,8,9,10,11,12,13,14,15,16,17-tetradecahydro-1H-cyclopenta[a]phenanthren-17-yl)-1-(4-hydroxy-4-propylpiperidin-1-yl) pentan-1-one], the figure is under 0.25 µM; as for `CC(C)C1(O)CCN(C(=O)CC[C@@H](C)[C@H]2CC[C@H]3[C@@H]4CC=C5C[C@@H](O)CC[C@]5(C)[C@H]4CC[C@]23C)CC1` [Example 149, (R)-4-((3S,8S,9S,10R,13R,14S,17R)-3-hydroxy-10,13-dimethyl-2,3,4,7,8,9,10,11,12,13,14,15,16,17-tetradecahydro-1H-cyclopenta[a]phenanthren-17-yl)-1-(4-hydroxy-4-isopropylpiperidin-1-yl) pentan-1-one], under 0.25 µM.
